Data: patent US20200078453A1, “METHODS OF TREATING A MAMMAL SUFFERING FROM OR SUSCEPTIBLE TO AN IMMUNE REACTION TO DRUG TREATMENT” (Idogen AB, priority 2015, published 2020)
Like-named read-outs stand apart in the source and are kept apart here.

What was measured:
[1] = test system: IDO1 gene expression (mRNA level) in THP-1 cells; assay: Induction of IDO1 in THP-1 cells, RT-qPCR; format: cell-based, human; settings: compound alone, 0.1-10 micromolar
Protocol: THP-1 cells were harvested from appropriate number of T75 flasks. Cells were counted in a Bürker chamber, stained with 0.4% Trypan Blue. The appropriate number of cells for each experiment were transferred to a new tube and centrifuged at 1200 rpm, 5 min at room temperature (RT). The supernatant was discarded and fresh RPMI with 5% FBS were added to get a cell concentration of 2×10^5 cells/mL. The compound was added to the five separate wells in 6-well plates such that five different final concentrations were obtained after adding the cells. A control was added to one well in the 6-well plate to which cells were added. 1×10^6 cells per well were seeded out to achieve a total volume of 5 mL per well. The cells were incubated at 37° C. in 5% CO2 for 96 hours. After 96 hours the assay was stopped and the cells were lysed for the isolation of RNA.
Total RNA was extracted from THP-1 cells using the RNA RNeasy Mini extraction kit (Qiagen), according to the manufacturer's instructions. […]
Following RNA extraction and quantification of gene expression by RT-qPRC, as described above, induction of IDO1 gene expression using Samples 1 to 6 was investigated. […]
Following RNA extraction and quantification of gene expression by RT-qPRC, as described above, induction of IDO1 gene expression using Samples 7 to 12 was investigated.

[2] = cited from earlier work
[3] = cited from earlier work; remark: listed apart in the source

Row | SMILES | increase of IDO1 gene expression (maximum) [1] | toxicity ([2]; at high concentrations) | cytotoxicity ([2]; in vitro and in vivo, at used concentrations) | half-life ([3]; 37° C. in PBS at pH 1.0) | half-life ([3]; 37° C. in PBS at pH 7.0) [days]
1 | Nc1ncn([C@@H]2O[C@H](CO)[C@@H](O)[C@H]2O)c(=O)n1 [5-azacytidine] | up to 23 fold | – | – | – | –
2 | O=c1ncccn1[C@@H]1O[C@H](CO)[C@@H](O)[C@H]1O [Zebularine] | – | toxic | minimally cytotoxic | approximately 44 h | ~21.2
3 | Nc1ncn([C@H]2C[C@H](O)[C@@H](CO)O2)c(=O)n1 [decitabine, 5-aza-2′-deoxycytidine] | up to 101 fold | – | – | – | –
